One data set concerns the target T1, MtKARI (Methanothermococcus thermolithotrophicus, UniProt A0A8X6EH16).
T1 construct: gene ilvC; native full-length class I enzyme purified from M. thermolithotrophicus, no tag; modelled residues 2-330 (Rossmann 2-183, knot 184-330); dodecamer 438 kDa
T1 sequence (A0A8X6EH16 1-330): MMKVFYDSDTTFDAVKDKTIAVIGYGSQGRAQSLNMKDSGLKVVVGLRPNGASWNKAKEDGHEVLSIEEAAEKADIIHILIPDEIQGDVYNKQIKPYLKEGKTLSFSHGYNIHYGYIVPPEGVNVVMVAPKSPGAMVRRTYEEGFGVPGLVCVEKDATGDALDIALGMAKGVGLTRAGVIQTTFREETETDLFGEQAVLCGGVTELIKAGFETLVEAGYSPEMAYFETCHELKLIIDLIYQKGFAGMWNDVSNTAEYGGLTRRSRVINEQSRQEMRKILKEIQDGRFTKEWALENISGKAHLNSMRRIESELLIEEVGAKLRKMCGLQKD
The experiment in a line: X-ray crystallography. The conditions noted are these: open state, 2.2 A; crystal soaked with 50 mM L-tartrate, 20 mM NADP, 50 mM MgCl2; Mg2+-free, pH 6.5; substrate analogue at the nicotinamide site. Format: binding.

Data set [1] concerns the molecule itself. Nature of the data set: native gel or EMSA; hrCN-PAGE, 5 to 15% gradient gel, 2 ug enriched MtKARI; cathode buffer with 0.05% sodium deoxycholate and 0.01% dodecyl maltoside, pH 7.

Consider two molecules from paper PMC8615647, “Structural Rearrangements of a Dodecameric Ketol-Acid Reductoisomerase Isolated from a Marine Thermophilic Methanogen” (Biomolecules, 2021).

As to `O=C(O)[C@H](O)[C@@H](O)C(=O)O` [L-tartrate], the X-ray crystallography result on MtKARI is “tartrate takes the vacant position of the nicotinamide group of NADPH and is loosely bound”.

B1: Ketol-acid reductoisomerase from Methanothermococcus thermolithotrophicus (enzyme, UniProt A0A8X6EH16 1-330, looked up)
chain: MMKVFYDSDTTFDAVKDKTIAVIGYGSQGRAQSLNMKDSGLKVVVGLRPNGASWNKAKEDGHEVLSIEEAAEKADIIHILIPDEIQGDVYNKQIKPYLKEGKTLSFSHGYNIHYGYIVPPEGVNVVMVAPKSPGAMVRRTYEEGFGVPGLVCVEKDATGDALDIALGMAKGVGLTRAGVIQTTFREETETDLFGEQAVLCGGVTELIKAGFETLVEAGYSPEMAYFETCHELKLIIDLIYQKGFAGMWNDVSNTAEYGGLTRRSRVINEQSRQEMRKILKEIQDGRFTKEWALENISGKAHLNSMRRIESELLIEEVGAKLRKMCGLQKD
notes: ketol-acid reductoisomerase (EC 1.1.1.86), class I, of Methanothermococcus thermolithotrophicus DSM 2095; native enzyme; model with Rossmann domain (2-183) and knot domain (184-330); stretch 47-53 is printed as LRPNGAS; Native protein without tags, identified by MALDI-TOF-MS; The crystals held NADP and Mg2+ (close state) or NADP and tartrate (open state); also called MtKARI; KARI; source: …
With B1, the “stoichiometry N” value in data set [1] came to 12.
